Measurements from article PMC12211128, “Safety, tolerability, pharmacokinetic and pharmacodynamic effects of the muscarinic M1 positive allosteric modulator VU0467319 for Alzheimer’s disease: a single ascending-dose study in healthy participants” (Alzheimer's Research & Therapy, 2025).
Marks after values point to notes of the source that are not given here.

Test system: healthy participants
Experiment: Incidental visual memory ERP paradigm
Type: in vivo, human
Settings: for Mean amplitude over the parietal cortex, Incidental Memory task, Novel trials / Mean amplitude over the parietal cortex, Incidental Memory task, Repeat trials: mean (SD)
Protocol: Following the cognitive battery, an electrophysiology recording was set up. Visual and auditory ERPs were recorded using a 128-channel Geodesic sensor net (EGI, Inc., Eugene, OR; [37, 38]). The electrophysiological recording was sampled at 250 Hz with filters set at 0.1–100 Hz. During data collection, all electrodes were referenced to vertex (Cz). The recording session lasted approximately 30 min.
(§1) A passive incidental visual memory paradigm (120 trials, 8 min; [38]) was used to evaluate changes in basic memory processes. Participants were asked to view a slide show of novel color photographs depicting complex natural scenes (different sets of images were used at pre-dose vs. post-dose administration test sessions). A small subset (n = 10) of the stimuli was presented repeatedly (× 5 each) throughout the session; the rest (n = 50) were shown once. To encourage attention to the stimulus sequence, 20 attention probes (a yellow smiley face) were presented throughout the test session and required a button press response. The task duration was approximately 7 min.
ERP processing and Analysis: Single-trial ERPs were derived by extracting a 100-ms pre-stimulus baseline and a 900 ms post-stimulus interval. The trials were screened for ocular and motor artifacts using automated procedures with standard threshold settings (NetStation 4.4, EGI, Inc) and verified using manual review. Data for electrodes characterized by consistent artifacts were replaced using the spherical spline interpolation algorithm. If more than 15 electrodes within a trial were noisy, the entire trial was discarded. Remaining artifact-free trials were averaged separately for each condition (standard vs. oddball; novel vs. repeated images), re-referenced to an average reference, and baseline corrected. For individual participant’s data to be included in the analysis, each condition average had to have a minimum of 10 artifact-free trials.
Statistical analysis focused on a priori selected electrode clusters corresponding to frontal, central, and parietal midline locations (Fz, Cz, Pz in 10–20 notation), confirmed using spatial principal components analysis. Mean amplitudes were calculated within 250–400 ms (frontal P3a), 300–500 ms (parietal P300), and 500–800 ms (parietal P600) temporal windows. These a-priori selected windows were confirmed using temporal principal components analysis.
Analyses for the auditory and visual oddball ERPs focused on the parietal (P300) and frontal (P3a) responses to standard and target stimuli. Differences in the amplitude, latency, and scalp topography of the responses were examined. […] For the incidental memory paradigm, differences in the mean amplitude of the parietal P300/P600 responses to repeated vs. novel presentations. The amplitude of the parietal P300/P600 waveform measures stimulus recognition. A larger positive amplitude for repeated compared to novel images indicates spontaneous formation of a memory trace.
as §1, with “(Key & Dykens, 2014))” for “[38])”, “once. All stimuli were presented in random order for 1500 ms with a random interstimulus interval of 1300-1600 ms.” for “once.”, “minutes.” for “min.”

[1] = SAD study, 120mg, Pre-Drug, n = 5
[2] = VU319 120 mg, fasting, post-drug session
[3] = VU319 120 mg, fasting, pre-drug session
[4] = VU319 120 mg, fed, post-drug session
[5] = VU319 120 mg, fed, pre-drug session

Cn1cc2c(-c3cc(F)c(CN4Cc5ncccc5C4=O)c(F)c3)cccc2n1 [VU319]
Incidental memory, novel vs repeated images (120 mg, fasted condition, either session, both p > 0.2): did not show a difference | Incidental memory parietal P300/P600 amplitude, repeated vs novel, effect size d (120 mg, fed condition, p = 0.018): 0.91 | Incidental memory parietal P300/P600 amplitude, repeated vs novel, effect size d (400 mg, p = 0.098): 0.83 | Incidental memory parietal P300/P600 amplitude, repeated vs novel, effect size d (600 mg, p = 0.09): 0.86 | Incidental memory P300/P600 amplitude, repeated vs novel, higher two doses compared to placebo, effect size d (400 and 600 mg): > 0.8 | Mean amplitude over the parietal cortex, Incidental Memory task, Novel trials (SAD study, 60 mg, Post-Drug): 0.87 (1.92) µV | Mean amplitude over the parietal cortex, Incidental Memory task, Repeat trials (SAD study, 60 mg, Post-Drug): 1.25 (1.02) µV | Mean amplitude over the parietal cortex, Incidental Memory task, Novel trials (SAD study, 60 mg, Pre-Drug): 0.49 (2.16) µV | Mean amplitude over the parietal cortex, Incidental Memory task, Repeat trials (SAD study, 60 mg, Pre-Drug): 0.77 (1.85) µV | Mean amplitude over the parietal cortex, Incidental Memory task, Novel trials (SAD study, 120 mg, Post-Drug): 1.67 (2.01) µV | Mean amplitude over the parietal cortex, Incidental Memory task, Repeat trials (SAD study, 120 mg, Post-Drug): 2.16 (1.69) µV | Mean amplitude over the parietal cortex, Incidental Memory task, Novel trials [1]: 2.3 (1.78)^# µV | Mean amplitude over the parietal cortex, Incidental Memory task, Repeat trials [1]: 2.66 (2.5)^# µV | Mean amplitude over the parietal cortex, Incidental Memory task, Novel trials (SAD study, 240 mg, Post-Drug): 1.76 (1.4) µV | Mean amplitude over the parietal cortex, Incidental Memory task, Repeat trials (SAD study, 240 mg, Post-Drug): 2.19 (1.37) µV | Mean amplitude over the parietal cortex, Incidental Memory task, Novel trials (SAD study, 240 mg, Pre-Drug): 1.22 (1.44) µV | Mean amplitude over the parietal cortex, Incidental Memory task, Repeat trials (SAD study, 240 mg, Pre-Drug): 2.14 (1.27) µV | Mean amplitude over the parietal cortex, Incidental Memory task, Novel trials (SAD study, 400 mg, Post-Drug): 2.45 (1.79) µV | Mean amplitude over the parietal cortex, Incidental Memory task, Repeat trials (SAD study, 400 mg, Post-Drug): 3.14 (2.3) µV | Mean amplitude over the parietal cortex, Incidental Memory task, Novel trials (SAD study, 400 mg, Pre-Drug): 2.35 (1.07) µV | Mean amplitude over the parietal cortex, Incidental Memory task, Repeat trials (SAD study, 400 mg, Pre-Drug): 1.91 (1.19) µV | Mean amplitude over the parietal cortex, Incidental Memory task, Novel trials (SAD study, 600 mg, Post-Drug): 1.98 (0.97) µV | Mean amplitude over the parietal cortex, Incidental Memory task, Repeat trials (SAD study, 600 mg, Post-Drug): 3.17 (1.37) µV | Mean amplitude over the parietal cortex, Incidental Memory task, Novel trials (SAD study, 600 mg, Pre-Drug): 2.47 (1.3) µV | Mean amplitude over the parietal cortex, Incidental Memory task, Repeat trials (SAD study, 600 mg, Pre-Drug): 2.74 (1.63) µV | Mean amplitude over the parietal cortex, Incidental Memory task, Novel trials [2]: 1.0 (1.39) µV | Mean amplitude over the parietal cortex, Incidental Memory task, Repeat trials [2]: 1.48 (1.3) µV | Mean amplitude over the parietal cortex, Incidental Memory task, Novel trials [3]: 1.34 (1.09) µV | Mean amplitude over the parietal cortex, Incidental Memory task, Repeat trials [3]: 1.46 (1.45) µV | Mean amplitude over the parietal cortex, Incidental Memory task, Novel trials [4]: 1.04 (1.81) µV | Mean amplitude over the parietal cortex, Incidental Memory task, Repeat trials [4]: 2.43 (1.59) µV | Mean amplitude over the parietal cortex, Incidental Memory task, Novel trials [5]: 1.0 (0.95) µV | Mean amplitude over the parietal cortex, Incidental Memory task, Repeat trials [5]: 0.88 (2.27) µV
